One data set deals with T1, human thrombin (Homo sapiens, UniProt P00734).
T1 construct: 10U/ml human thrombin
As to the kind of experiment: Thrombin clotting time in pooled human plasma, initial effect before incubation. In kind it is biochemical. The note with it: 3.3 U/ml human thrombin, 37° C.

A further data set concerns thrombin clotting time. As to the kind of experiment: Ex vivo clotting time prolongation after oral dosing of rats. It counts as in vivo, rat. The note with it: rats dosed orally (p.o.), three per group; clotting time measured ex vivo. As for the experimental part: Human citrated plasma obtained from human volunteers or citrated plasma obtained from dosed animals (prepared as described below). 25 NIH Units/ml human α-thrombin in thrombin buffer for use with rat plasma. 10 NIH Units/ml human α-thrombin in thrombin buffer for use with human plasma. Dosing: Test compound was prepared just prior to dosing. Routinely the drugs are dissolved in water. Occasionally other vehicles are used, such as PEQ-200 stock solutions are vortex mixed and animals are dosed p.o. using a 3 ml syringe with an 18-19 gauge oral gavage needle or i.p. injection. Blood Drawing for Rats: After the appropriate time period, the animals were ether-anesthetized, and blood was drawn by cardiac puncture using 333 μl of 3.8% sodium citrate per 3 ml blood. […] Clotting times were determined by pipetting 0.1 ml of Owren's buffer (pre-warmed to 37° C.) and 0.1 ml of human or rat plasma into yellow sample cuvettes. For studies with human plasma 10 U/ml human thrombin (10 ml) was placed in the reservoir assembly station of the MLA 700. (Medical Laboratory Automation, Electra 700 Reservoir Assembly). For rat studies, the human thrombin concentration was 25 U/ml. The cuvettes were vortexed and then placed on the MLA 700 sample wheel. The coagulation timer (MLA 700) automatically dispenses 0.1 ml human thrombin into the sample in each cuvette. Detection of the fibrin clot was determined optically by the MLA 700. In separate studies, compounds were dosed orally (p.o.) to three rats in each study group. […] Consequently, they are useful in controlling blood coagulation in mammals including humans.

The nature of data set [1]: Clotting time after incubation of compound in water at 40° C. (stability). In kind it is physicochemical. The note with it: 50 μM stock in deionized water, 0.25-24 hours, FIG. 1. As for the experimental part:
CLOTTING TIME AFTER INCUBATION OF COMPOUND IN WATER AT 40° C.
Fresh blood was drawn from two human donors into vacutainer tubes containing buffered sodium citrate (16 mg sodium citrate and 2.1 mg citric acid per 4.5 ml of blood). The tubes were centrifugated immediately at 1920×g for 15 minutes to obtain fresh platelet poor plasma. The plasma was pooled and 10 ml aliquots were divided into three test tubes. Two tubes were frozen and maintained at -20° C. for future use and one tube was kept on ice throughout testing.
The compound of Example 14 and D-Phe-Pro-Arg aldehyde: H2 SO4 were prepared as stock solutions (50 μM) in deionized water. […] After the initial effect of these compounds on clotting time was determined, the compounds were placed in a 40° C. water bath for various time intervals (from 0.25-24 hours) and aliquots were withdrawn to determine the effect of the incubation on clotting time.
Clotting times were measured optically using the Medical Laboratory Automation Electra 700 (MLA 700). Test cuvettes contained 0.1 ml of pre-warmed Owren's buffer, 0.1 ml of the human plasma and 1.2 and 3.0 μl of the test compounds dissolved in water. […] Clotting time was determined at 37° C. after the addition of 0.1 ml of 10U/ml human thrombin (final concentration=3.3 U/ml).
The stability of the compounds of the present invention were measured or described in the biological procedures. […]

Non-standard residues stand in square brackets, D forms with d. Residues, ends and D or L forms follow the SMILES beside them. *: point of attachment. Hydrocinnamoyl = O=C(CCc1ccccc1)*; PhAc = O=C(Cc1ccccc1)*; Bz = O=C(c1ccccc1)*

Description for human thrombin: Clotting times were measured optically using the Medical Laboratory Automation Electra 700 (MLA 700). Test cuvettes contained 0.1 ml of pre-warmed Owren's buffer, 0.1 ml of the human plasma and 1.2 and 3.0 μl of the test compounds dissolved in water. The cuvette was then vortex mixed and placed on the MLA 700 sample wheel. Clotting time was determined at 37° C. after the addition of 0.1 ml of 10U/ml human thrombin (final concentration=3.3 U/ml).

For the compound `N=C(N)NCCC[C@@H](C=O)NC(=O)[C@@H]1CCCN1C(=O)[C@H](N)Cc1ccccc1` [D-Phe-Pro-Arg aldehyde, D-Phe-Pro-Arg aldehyde: H2 SO4, reference compound], the “final concentration which initially caused prolongation of clotting time to approximately three times control value” at human thrombin amounted to 0.5 µM.
Consider `Cl.Cl.N=C(N)NCCC[C@@H](C=O)NC(=O)[C@@H]1CCCN1C(=O)CCc1cccnc1` [Example 8, N^α [N-(3-(3-Pyridyl)propanoyl)-L-Prolyl]-L-arginine aldehyde Dihydrochloride], for which the DTT in the data set on thrombin clotting time is on record as ~ 100 mg/kg.
For the compound `Cl.N=C(N)NCCC[C@@H](C=O)NC(=O)[C@@H]1CCCN1C(=O)c1ccccc1` [Example 9, Nα-[N-Benzoyl-L-prolyl]-L-arginine aldehyde Hydrochloride] (Bz-Pro-Arg-aldehyde), the DTT in the data set on thrombin clotting time is given as 150 mg/kg.
`Cl.N=C(N)NCCC[C@@H](C=O)NC(=O)[C@@H]1CCCN1C(=O)Cc1ccccc1` [Example 12, N^α -[N-Phenylacetyl-L-prolyl]-L-arginine aldehyde Hydrochloride] (PhAc-Pro-Arg-aldehyde) registered a DTT with thrombin clotting time of 100 mg/kg.
As for `Cl.N=C(N)NCCC[C@@H](C=O)NC(=O)[C@@H]1CCCN1C(=O)CCC1CCCCC1` [Example 13, N^α -[N-(3-Cyclohexylpropanoyl)-L-prolyl]-L-arginine aldehyde Hydrochloride], the DTT in the data set with thrombin clotting time worked out at 100 mg/kg.
Take `Cl.N=C(N)NCCC[C@@H](C=O)NC(=O)[C@@H]1CCCN1C(=O)CCc1ccccc1` [Example 14, N^α -[N-(3-Phenylpropanoyl)-L-prolyl]-L-arginine aldehyde Hydrochloride] (Hydrocinnamoyl-Pro-Arg-aldehyde): the “stability in water (effect of incubation on clotting time)” value in data set [1] is “more stable than the corresponding D-phe compound”. This compound also registered a DTT with thrombin clotting time of 60 mg/kg. Moreover, on human thrombin, the “final concentration which initially caused prolongation of clotting time to approximately three times control value” came out at 0.2 µM.
For `Cl.Cl.N=C(N)NCCC[C@@H](C=O)NC(=O)[C@@H]1CCCN1C(=O)[C@@H](Cc1ccccc1)NC(=O)CN` [Example 16, N^α -[Glycl-D-phenylalanyl-L-prolyl]-L-arginine aldehyde Dihydrochloride] (H-G[dF]PR-aldehyde), the DTT in the data set with thrombin clotting time is recorded as 50 mg/kg.
On the same count and under the same terms, in the case of `C[C@H](NC(=O)[C@H](N)Cc1ccccc1)C(=O)N[C@H](C=O)CCCNC(=N)N.O=S(=O)(O)O` [Example 19, N^α -[D-Phenylalanyl-L-alanyl]-L-arginine aldehyde Sulfate] (H-[dF]-Ala-Arg-aldehyde) it was 110 mg/kg.

For the origin of these results see US5380713A, “Peptide aldehydes as antithrombotic agents” (Bristol-Myers Squibb Company, priority 1994, dated 1995).
